Measurements published in patent US20220257636A1, “REDUCTION OF BONE RESORPTION, ESPECIALLY IN CHRONIC JOINT DISEASES” (TECHNISCHE UNIVERSITÄT DARMSTADT, priority 2019, published 2022).
“Also recorded” adds a separate entry of the source. {Cy5} = Cyanine5 fluorescent label

Experiments:
[1] = test system: freshly isolated human monocytes
Experimental: The cytotoxicity was tested with an MTT assay in which the eponymous dye MTT (3-(4,5-dimethylthiazol-2-yl)-2,5-diphenyltetrazoliumbromide) is used. As negative control a PNA with a sequence which was not complementary to miR-574-5p and which was also bound to CPP by means of the PEG linker was tested (SEQ ID NO: 30). The CPP-PNA construct of the negative control used can be illustrated as follows (from the N-terminus to the C-terminus): [sequence]-(eg1)-[sequence](K—NH2). The negative control differs from the above-described construct according to the present invention only with respect to the PNA sequence.
The cytotoxicity was tested on freshly isolated human monocytes.

CD14+ monocytes [2] = test: Induction of osteoclast genesis (count of TRAP positive multinuclear cells), substances added to CD14+ monocytes; type: cell-based, human
Description: (§1) CD14^+ monocytes were isolated from PMBCs (peripheral blood mononuclear cells) of healthy donors and stimulated with M-CSF (recombinant human macrophage colony-stimulating factor), RANK-L (receptor activator of NF-κB ligand) and different concentrations of the isolated sEVs. With the sEVs isolated from the synovial fluid both freshly isolated monocytes and differentiated M2-like macrophages were stimulated (FIG. 2).
(§2) After 9 to 12 days the cells were fixed and tested for the osteoclast marker TRAP (tartrate-resistant acid phosphatase). TRAP positive cells which also comprised at least three nuclei were classified as osteoclasts and counted with the light microscope.
(§3) Isolated human CD14^+ monocytes were treated with 1 μg/ml miR-574-5p oe sEVs or ScrC sEVs at different time points of the differentiation (FIG. 8A, 8B, 8C).
The influence of the miR-574-5p PNA AntagomiR which was coupled to CPP onto the osteoclast genesis was tested. This scheme has been adapted such that on day 1 the CPP-coupled miR-574-5p PNA AntagomiR (CPP-PNA) was added in concentrations of 10 μM or 20 μM. The negative control was conducted without any addition of CPP-PNA (0 μm CPP-PNA). […] Also for this experiment freshly isolated human monocytes were used. After the completion of the differentiation matured osteoclasts were visualized with the help of histologic staining (detection of tartrate-resistant acid phosphatases, TRAP). Subsequently, multinuclear TRAP positive cells are quantified under a light microscope.

pre-osteoclasts = test: Induction of osteoclast genesis, substances added to pre-osteoclasts; type: cell-based, human; settings: TLR7/8 agonist added to pre-osteoclasts
Experimental: as §2, §3

CD14+ monocytes [3] = test: Cytokine mRNA levels by RT-qPCR after stimulation of CD14+ monocytes; type: cell-based, human
Experimental: CD14^+ monocytes were stimulated with sEVs from the synovial fluid of ACPA positive patients with rheumatoid arthritis (4 μg/ml), with miR-574-5p oe sEVs (1 μg/ml) or with ScrC sEVs (1 μg/ml) for 4 hours each. Then the whole RNA was isolated and the mRNA levels of IL-23, IL-8, INFα, IL-1β and TNFα were analyzed with RT-qPCR. These cytokines are known for their influence onto the differentiation of osteoclasts (Amara-sekara D. S., Yun Ii., Kim S., Lee N. and Rho J. (2018). “Regulation of Osteoclast Differentiation by Cytokine Networks.” Immune Netw 18: • 1-18). The sequences of the primer pairs used are shown in the sequence protocol (SEQ ID NOs: 6-7 for INFα, SEQ ID NOs: 8-9 for IL-23, SEQ ID NOs: 10-11 for TNFα, SEQ ID NOs: 12-13 for IL-1β and SEQ ID NOs: 14-15 for IL-8). For the normalization of the cDNA amounts in different samples the levels of β-actin were used (primer pair: SEQ ID NOs: 16-17).

M2-like macrophages = test: Induction of osteoclast genesis (count of TRAP positive multinuclear cells), substances added to M2-like macrophages; type: cell-based, human; settings: added with miR-574-5p to M2-like macrophages (FIG. 10D)
Description: as §1, §2, §3

TLR8 = target: T1, TLR8 (Homo sapiens, UniProt Q9NR97); test: MST (microscale thermophoresis) direct interaction with TLR8; type: binding; settings: Cy5-labeled miR
T1 sequence (Q9NR97 27-1041): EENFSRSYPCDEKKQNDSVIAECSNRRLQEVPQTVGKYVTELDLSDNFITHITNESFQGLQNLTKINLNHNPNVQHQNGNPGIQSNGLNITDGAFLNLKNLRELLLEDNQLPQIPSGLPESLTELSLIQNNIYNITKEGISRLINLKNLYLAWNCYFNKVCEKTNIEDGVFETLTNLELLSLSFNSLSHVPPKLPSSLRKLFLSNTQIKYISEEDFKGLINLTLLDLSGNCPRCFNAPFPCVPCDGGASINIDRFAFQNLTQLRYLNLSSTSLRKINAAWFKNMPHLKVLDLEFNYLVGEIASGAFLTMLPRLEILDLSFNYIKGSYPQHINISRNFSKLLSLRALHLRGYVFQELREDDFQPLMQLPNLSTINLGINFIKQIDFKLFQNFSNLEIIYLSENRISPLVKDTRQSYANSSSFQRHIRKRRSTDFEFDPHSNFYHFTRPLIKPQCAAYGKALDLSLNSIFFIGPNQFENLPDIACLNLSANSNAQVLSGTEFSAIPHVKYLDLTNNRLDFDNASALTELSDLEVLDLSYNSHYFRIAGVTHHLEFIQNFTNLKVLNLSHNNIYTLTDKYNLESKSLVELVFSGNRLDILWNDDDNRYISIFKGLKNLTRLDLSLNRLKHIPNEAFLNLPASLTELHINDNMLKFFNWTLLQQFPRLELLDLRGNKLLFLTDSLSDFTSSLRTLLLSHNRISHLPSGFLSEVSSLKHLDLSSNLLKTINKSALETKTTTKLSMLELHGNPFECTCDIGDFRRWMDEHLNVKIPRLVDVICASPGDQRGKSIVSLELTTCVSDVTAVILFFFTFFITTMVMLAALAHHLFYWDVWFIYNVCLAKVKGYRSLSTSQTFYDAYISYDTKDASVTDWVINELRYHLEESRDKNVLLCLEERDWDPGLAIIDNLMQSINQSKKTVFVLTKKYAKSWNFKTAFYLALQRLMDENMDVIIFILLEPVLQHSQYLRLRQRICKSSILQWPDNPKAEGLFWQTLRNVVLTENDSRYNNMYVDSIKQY
Description: In the context of the present invention, a direct interaction of miR-574-5p with TLR8 was detected by means of MST (microscale thermophoresis); (Wienken C. J., Baaske P., Rothbauer U., Braun D. and Duhr S. (2010). “Protein-binding assays in biological liquids using microscale thermophoresis.” Nat Commun 1: 100). […] For the MST experiments Cy5-labeled miR-574-5p (SEQ ID NO: 18) and Cy5-labeled miR-16-5p (SEQ ID NO: 19) were used.

[4] = 10 ng/ml, compared with miR-574-5p oe sEVs (FIGS. 11E and 11F)

## GRKKRWFRRRRMKWKK-(eg1)-gctattaccttaacccag(K—NH2) (GCTATTACCTTAACCCAG; all peptide nucleic acid (PNA); N-terminal cell-penetrating peptide via eg1 linker, C-terminal lysine amide, further chemistry not fully specified) [negative control]
[1]
  cytotoxicity (MTT, viability): Neither in the case of the negative control (FIG. 13A) nor in the case of miR-574-5p PNA AntagomiR (FIG. 13B) a significant toxicity was observed

## GRKKRWFRRRRMKWKK-(eg1)-ctcacacacacacactca(K—CONH2) (PEG linker, C-terminal amide; Cell Penetrating Peptide (CPP); Peptide Nucleic Acid (PNA) AntagomiR) [CPP-coupled miR-574-5p PNA AntagomiR]
CD14+ monocytes [2]; added on day 1 at 10 μM or 20 μM, versus 0 μM, TRAP positive multinuclear cells
  osteoclast genesis: concentration-dependent reduction
[1]
  cytotoxicity (MTT, viability): Neither in the case of the negative control (FIG. 13A) nor in the case of miR-574-5p PNA AntagomiR (FIG. 13B) a significant toxicity was observed
  viability in comparison to the untreated control: increased viability

## CCOCc1nc2c(N)nc3ccccc3c2n1CC(C)(C)O [R848]
pre-osteoclasts
  osteoclast genesis: no significant increase
CD14+ monocytes [3]; [4]
  IL-23 mRNA: Comparable results
  INFα mRNA: Comparable results

## ODN 2087: TLR7/8 inhibitor oligonucleotide, SEQ ID NO: 24, MiltenyiBiotec (TCCTGAGCTTGAAGT; DNA, all phosphorothioate, methylation of C not given here)
CD14+ monocytes [2]; added with R848 (FIGS. 10E and 10F)
  effect of inhibitor on the R848 effect on the number of osteoclasts: nullify the effect
CD14+ monocytes [2]; added with miR-574-5p to CD14+ monocytes (FIG. 10C)
  effect of inhibitor on the miR-574-5p induced increase of the number of osteoclasts: nullifies the effect
M2-like macrophages
  effect of inhibitor on the miR-574-5p induced increase of the number of osteoclasts: nullifies the effect
CD14+ monocytes [3]; added to the stimulation with sEVs or R848
  effect of inhibitor on the induced INFα and IL-23 mRNA increases: nullify the observed effects

## miR-16-5p: microRNA; Cy5-labeled form (SEQ ID NO: 19) used for MST (UAGCAGCACGUAAAUAUUGGCG; RNA, 3' {Cy5}, backbone not given here)
TLR8
  specific interaction with TLR8: specific interaction between TLR8 and miR-16-5p was not shown; also recorded: specific interaction between TLR8 and miR-16-5p was not observed

## miR-574-5p: microRNA, SEQ ID NO: 4; Cy5-labeled form (SEQ ID NO: 18) used for MST (UGAGUGUGUGUGUGUGAGUGUGU; Cy5-labeled form used for MST, label position not given here; listed as Homo sapiens)
CD14+ monocytes [2]; miR-574-5p alone, not in sEVs (FIG. 9)
  stimulation of the osteoclast genesis: Neither miR-574-5p alone, nor miR-574-5p in the presence of synthetic liposomal vehicles (Lipofectamine® 2000 (Thermo Fisher Scientific, Waltham, USA)) results in a stimulation
CD14+ monocytes [2]; miR-574-5p in the presence of synthetic liposomal vehicles (Lipofectamine 2000) (FIG. 9)
  stimulation of the osteoclast genesis: Neither miR-574-5p alone, nor miR-574-5p in the presence of synthetic liposomal vehicles (Lipofectamine® 2000 (Thermo Fisher Scientific, Waltham, USA)) results in a stimulation
TLR8; read-out: constant of dissociation KD
  Kd: 30.8 ± 5.2 nM
CD14+ monocytes [3]; any of the conditions tested
  IL-1β mRNA level: not influenced
  IL-8 mRNA level: not influenced
  TNFα mRNA level: not influenced
